Tested on: PAF induced mortality
Experiment: Prevention of mortality induced by platelet aggregating factor (PAF)
Format: in vivo, mice (CF1)
Settings: Mus musculus, Platelet; oral, PAF 0.10 mg/kg i.v.; read-out: oral ID50 (Inhibiting Dose), PAF induced mortality
Method: (k) Prevention of Mortality Induced by Platelet Aggregating Factor (PAF)
Male CF1 mice weighing 20-30 gms (Carworth Farms Co.) are fed ad libitum.
Racemic 2-[[[2-(acetyloxy)-3-(octadecyloxy)propoxy]hydroxyphosphinyl]oxy]-N,N,N-trimethylethanaminium hydroxide inner salt hemihydrate (PAF) is concentrated in ethanol at a concentration of 1 mg/ml.At the time of experimentation, PAF is diluted in 0.1% BSA (bovine serum albumin) and administered intravenously at a dose of 0.10 mg/kg one hour after 10 mice are dosed with either vehicle (BSA) or drug. Mortality in mice treated with PAF occurs within 30 minutes after i.v. administration.

SMILES: CC(C)c1ccc2nc3ccc(C(=O)NCCCCCCn4ccnc4)cn3c(=O)c2c1 [Example 31, 2-(1-methylethyl)-N-[6-(1H-imidazol-1-yl)hexyl]-11-oxo-11H-pyrido[2,1-b]quinazoline-8-carboxamide]
- ED50: 17 mg/kg
